Laboratory results taken from patent publication US9708628B2, “Cationic lipid having improved intracellular kinetics” (NOF CORPORATION, priority 2011, dated 2017).

What was measured:
[1] = Particle size and surface potential of siRNA MENDs prepared by t-BuOH injecting method; type: physicochemical; conditions: siRNA MEND, cationic lipid/cholesterol=70/30, DMG-PEG2000 3%
Protocol: (§1) A lipid solution in t-BuOH with a composition of cationic lipid/cholesterol=70/30, DMG-PEG2000 3% and a total lipid amount of 3000 nmol/400 μL (7.5 mM) was prepared in a 1.7 mL tube. In a separate 1.7 mL tube, an siRNA solution was prepared by mixing an siRNA aqueous solution containing siRNA (160 μg) and 20 mM malate buffer (pH 4.00, 30 mM NaCl) to total 50 μL. With vigorous stirring of the lipid solution, the siRNA solution was gradually added dropwise, and the mixed solution was taken in a 1 mL syringe. Then, 20 mM malate buffer (pH 4.00, 30 mM NaCl, 2 mL) was added into a 5 mL tube, and the mixed solution was gradually injected with vigorous stirring. Thereafter, the mixture was further diluted with PBS (7 mL) and centrifuged at 1000 g, 30° C. for 10 min in Amicon Ultra-15-100K to a volume of less than 1.5 mL. PBS (15 mL) was added, and the solution was centrifuged again to about 500-1000 μL. Finally, the MEND solution was adjusted by diluting with PBS to the object lipid concentration.
The particle size and surface potential of various MENDs were measured according to the method described in [Experimental Example 2] and the results are shown in Table 6.

Factor VII (FVII) [2] = assay: Knockdown effect of siRNA-encapsulated MEND prepared by t-BuOH injecting method; type: in vivo, ICR mice; conditions: varying doses of siRNA, tail vein
Protocol: A MEND solution prepared by the method shown in [Experimental Example 28] was administered to 4-week-old male ICR mice at 3 mg siRNA/kg from the tail vein, and blood was collected 24 hr later. This blood sample was centrifuged at 1000 g, 10 min, 4° C., and the supernatant was recovered to obtain plasma. The amount of Factor VII (FVII) in the plasma was quantified by BIOPHEN FVII CHROMOGENIC ASSAY (HYPHEN BioMed).
as §1
MENDs prepared by the method shown in Experimental Example 32 were administered by a method similar to the method shown in Experimental Example 30 with varying doses of siRNA, and the knockdown effect was evaluated. The results are shown in FIG. 35, FIG. 36, and FIG. 37.

Factor VII (FVII) [3] = assay: Knockdown effect of chemically-modified siRNA-encapsulated MEND; type: in vivo, ICR mice
Protocol: A MEND (Lipid/siRNA ratio=250) prepared using the compound of Example 13 and by the method shown in Experimental Example 32, and a MEND having the ratio of lipid and siRNA of Lipid/siRNA ratio=2250 were prepared. Furthermore, of Lipid/siRNA ratio=2250, MENDs wherein siRNA was replaced by chemically-modified one (2′-F) were prepared, and the knockdown effect was evaluated by the method shown in Experimental Example 33.

In the case of Cc1c(C)c2c(c(C)c1OC(=O)CCC(=O)OCCCCC1CCN(CCSSCCN3CCC(CCCCOC(=O)CCC(=O)Oc4c(C)c(C)c5c(c4C)CCC(C)(CCCC(C)CCCC(C)CCCC(C)C)O5)CC3)CC1)CCC(C)(CCCC(C)CCCC(C)CCCC(C)C)O2 (stereo not drawn) [TS-P4C4], the PDI [1] is reported as 0.11, the “size (nm)” value [1] is reported as 123 nm and the “zeta (mV)” value [1] is reported as −6.9 mV. For the same molecule, the “FVII expression level (knockdown effect)” value (Factor VII (FVII) [2]) was “highest knockdown effect”, the “knockdown effect with chemically-modified siRNA (2′-F)” value (Factor VII (FVII) [3]; Lipid/siRNA ratio=2250) was “further enhanced the knockdown effect” and the “knockdown effect, Lipid/siRNA ratio 2250 versus 250” value (Factor VII (FVII) [3]; unmodified siRNA) was “knockdown effect was enhanced”.
